Test results published in US7217708B2, “3,7-Diazabicyclo [3.3.1] formulations as anti-arrhythmic compounds” (Astrazeneca AB, priority 2001, dated 2007).

melting point: 113.5 °C
Structure (SMILES): CC(C)(C)OC(=O)NCCN1CC2CN(CCCNc3ccc(C#N)cc3)CC(C1)O2 [Example 23, Compound B]
